The source of these data is patent publication US20260193264A1, “BENZOYPARAZINE PYRAZINES AND THEIR USES” (FOGHORN THERAPEUTICS INC., priority 2022, published 2026).

Test [1] has as its target T1, HiBiT-BRM fusion protein in stable HeLa cell line (Homo sapiens, UniProt P51531).
T1 construct: expressed in transfected cells
Kind of test: HiBiT-BRM cell-based degradation assay (Nano-Glo HiBiT Lytic Detection, 24 h). The conditions noted are these: HeLa HiBiT-BRM cells; for DC50: read-out: BRM HiBit Degradation IC50; for BRM HiBit Degradation Maximum (%): top dose 30 μM. Set-up: DC50: scale not given here. The method, boiled down: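 HiBiT-tagged BRM levels in a stable HeLa line are measured after one day of compound treatment (up to 30 μM final, duplicate 10-point curves) by adding LgBiT lytic reagent and reading bioluminescence; values are expressed relative to vehicle and a 2 μM degrader control.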
On the technique in general: HiBiT is a short tag that completes a luciferase, so light tracks the accessible tagged protein.

In test [2] the target is T2, HiBit-BRG1 fusion protein in stable HeLa cell line expressing HiBit-BRG1 and LgBit (Homo sapiens, UniProt P51532).
T2 construct: expressed in transfected cells
T2 sequence (P51532 whole entry, the tested form may be a part): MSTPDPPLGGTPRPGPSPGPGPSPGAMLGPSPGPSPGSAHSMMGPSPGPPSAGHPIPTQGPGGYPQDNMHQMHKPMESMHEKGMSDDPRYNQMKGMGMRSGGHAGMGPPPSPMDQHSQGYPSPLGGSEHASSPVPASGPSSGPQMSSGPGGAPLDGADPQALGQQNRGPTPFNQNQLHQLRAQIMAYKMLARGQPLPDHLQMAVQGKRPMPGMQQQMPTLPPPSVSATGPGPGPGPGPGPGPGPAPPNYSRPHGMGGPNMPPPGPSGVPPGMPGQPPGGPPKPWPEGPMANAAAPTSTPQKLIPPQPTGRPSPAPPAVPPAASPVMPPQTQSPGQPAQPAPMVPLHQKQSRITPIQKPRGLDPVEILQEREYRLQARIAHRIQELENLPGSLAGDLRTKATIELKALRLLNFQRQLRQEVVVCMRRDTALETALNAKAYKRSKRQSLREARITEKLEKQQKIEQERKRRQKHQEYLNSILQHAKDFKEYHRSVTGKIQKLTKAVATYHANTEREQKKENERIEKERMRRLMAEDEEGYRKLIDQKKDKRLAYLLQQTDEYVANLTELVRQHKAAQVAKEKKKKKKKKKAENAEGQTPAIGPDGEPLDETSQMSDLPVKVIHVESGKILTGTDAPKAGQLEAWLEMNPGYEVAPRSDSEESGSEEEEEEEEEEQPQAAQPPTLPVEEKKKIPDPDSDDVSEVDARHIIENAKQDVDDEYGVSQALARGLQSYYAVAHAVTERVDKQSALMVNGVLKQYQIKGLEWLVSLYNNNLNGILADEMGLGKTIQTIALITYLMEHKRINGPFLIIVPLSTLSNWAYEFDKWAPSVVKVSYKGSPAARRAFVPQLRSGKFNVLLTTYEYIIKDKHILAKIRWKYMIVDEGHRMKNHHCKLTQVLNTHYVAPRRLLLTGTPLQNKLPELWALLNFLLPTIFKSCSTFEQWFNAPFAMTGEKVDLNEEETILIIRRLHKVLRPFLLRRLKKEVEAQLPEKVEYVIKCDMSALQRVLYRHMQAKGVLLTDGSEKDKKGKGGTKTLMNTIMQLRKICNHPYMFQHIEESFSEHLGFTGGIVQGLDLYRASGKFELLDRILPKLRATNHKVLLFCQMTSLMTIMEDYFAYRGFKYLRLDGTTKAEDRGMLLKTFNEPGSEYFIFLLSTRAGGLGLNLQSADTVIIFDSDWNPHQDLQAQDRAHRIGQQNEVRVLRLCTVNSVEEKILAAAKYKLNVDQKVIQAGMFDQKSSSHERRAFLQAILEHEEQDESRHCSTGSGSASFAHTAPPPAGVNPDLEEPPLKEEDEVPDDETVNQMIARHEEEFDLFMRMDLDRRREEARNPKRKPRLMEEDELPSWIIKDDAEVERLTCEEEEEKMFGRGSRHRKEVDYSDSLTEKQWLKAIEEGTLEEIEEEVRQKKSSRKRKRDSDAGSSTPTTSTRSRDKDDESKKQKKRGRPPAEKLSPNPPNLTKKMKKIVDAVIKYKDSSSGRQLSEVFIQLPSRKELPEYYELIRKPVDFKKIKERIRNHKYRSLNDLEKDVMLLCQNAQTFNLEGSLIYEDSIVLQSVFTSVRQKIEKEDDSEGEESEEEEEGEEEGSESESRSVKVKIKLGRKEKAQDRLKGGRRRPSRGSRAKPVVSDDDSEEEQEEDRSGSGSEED
Kind of test: HiBiT-BRG1 cell-based degradation assay (Nano-Glo HiBiT, 24 h). As to conditions: HeLa HiBit-BRG1/LgBit cells; for DC50: read-out: BRMG1 HiBit Degradation IC50; for Dmax: top dose 30 μM, read-out: BRG1 HiBit Degradation Maximum (%). In a few lines:
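Degradation calculated from NanoBiT luminescence relative to DMSO-treated cells (high) and cells given 2 μM known BRM/BRG1 degrader (low). HeLa cells stably expressing HiBiT-BRG1 plus LgBiT were exposed to compound for 24 h before lytic HiBiT detection.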

T1 sequence (P51531 whole entry, the tested form may be a part): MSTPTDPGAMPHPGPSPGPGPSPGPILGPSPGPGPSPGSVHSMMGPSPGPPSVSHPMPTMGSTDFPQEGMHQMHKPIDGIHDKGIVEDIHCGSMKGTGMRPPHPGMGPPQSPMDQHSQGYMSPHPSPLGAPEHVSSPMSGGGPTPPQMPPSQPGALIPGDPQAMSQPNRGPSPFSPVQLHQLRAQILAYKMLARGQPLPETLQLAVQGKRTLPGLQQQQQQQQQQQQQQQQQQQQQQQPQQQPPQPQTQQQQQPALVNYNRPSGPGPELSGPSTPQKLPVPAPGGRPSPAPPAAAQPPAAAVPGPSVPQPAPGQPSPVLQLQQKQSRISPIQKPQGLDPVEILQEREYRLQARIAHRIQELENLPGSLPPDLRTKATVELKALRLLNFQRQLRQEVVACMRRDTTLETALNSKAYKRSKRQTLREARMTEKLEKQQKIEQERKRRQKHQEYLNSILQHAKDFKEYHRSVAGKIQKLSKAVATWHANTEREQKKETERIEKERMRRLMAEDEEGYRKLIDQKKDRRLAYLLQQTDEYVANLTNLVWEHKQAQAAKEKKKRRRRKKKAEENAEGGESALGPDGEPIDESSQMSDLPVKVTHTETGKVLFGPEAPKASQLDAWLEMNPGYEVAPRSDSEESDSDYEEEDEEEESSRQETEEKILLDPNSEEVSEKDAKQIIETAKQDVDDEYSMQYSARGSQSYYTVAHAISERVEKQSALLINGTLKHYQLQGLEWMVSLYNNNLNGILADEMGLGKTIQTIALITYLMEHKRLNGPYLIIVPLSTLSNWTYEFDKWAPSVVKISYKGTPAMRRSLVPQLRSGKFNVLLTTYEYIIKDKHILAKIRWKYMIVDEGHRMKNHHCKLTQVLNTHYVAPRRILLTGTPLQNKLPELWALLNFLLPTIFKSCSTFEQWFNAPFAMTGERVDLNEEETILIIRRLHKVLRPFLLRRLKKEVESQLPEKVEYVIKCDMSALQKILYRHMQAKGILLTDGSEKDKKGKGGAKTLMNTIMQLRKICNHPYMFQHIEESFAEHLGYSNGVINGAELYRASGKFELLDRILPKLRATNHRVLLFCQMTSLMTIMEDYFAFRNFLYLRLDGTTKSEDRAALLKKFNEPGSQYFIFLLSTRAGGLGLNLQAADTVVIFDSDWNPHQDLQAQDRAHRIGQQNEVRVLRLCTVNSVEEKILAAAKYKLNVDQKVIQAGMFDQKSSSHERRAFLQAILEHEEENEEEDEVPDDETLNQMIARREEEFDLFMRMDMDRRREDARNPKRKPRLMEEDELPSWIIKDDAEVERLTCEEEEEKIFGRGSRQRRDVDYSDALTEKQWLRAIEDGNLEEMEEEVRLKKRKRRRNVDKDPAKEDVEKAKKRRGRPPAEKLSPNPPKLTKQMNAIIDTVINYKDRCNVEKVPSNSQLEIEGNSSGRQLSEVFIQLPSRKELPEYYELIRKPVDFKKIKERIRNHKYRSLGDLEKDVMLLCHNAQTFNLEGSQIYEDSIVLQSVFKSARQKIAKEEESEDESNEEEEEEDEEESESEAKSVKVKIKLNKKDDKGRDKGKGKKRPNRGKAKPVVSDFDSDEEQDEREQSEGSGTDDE

For `Cc1ncsc1-c1ccc([C@H](C)NC(=O)[C@@H]2C[C@@H](O)CN2C(=O)C(C(C)C)n2cc(N3CCC4(CC3)CCN4c3ccc4cc(-c5ccccc5O)nnc4c3)nn2)cc1` (stereo partly drawn) [Compound 234, (2S,4R)-4-hydroxy-1-(2-(4-(1-(3-(2-hydroxyphenyl)cinnolin-7-yl)-1,7-diazaspiro[3.5]nonan-7-yl)-1H-1,2,3-triazol-1-yl)-3-methylbutanoyl)-N-((S)-1-(4-(4-methylthiazol-5-yl)phenyl)ethyl)pyrrolidine-2-carboxamide], in test [1], the DC50 was below 0.01 µM and the “BRM HiBit Degradation Maximum (%)” value is “A (“A” indicates maximum degradation ≥75%)”. In test [2], the DC50 was above 0.01 µM and the Dmax is above 50%.

As to `Cc1ncsc1-c1ccc([C@H](C)NC(=O)[C@@H]2C[C@@H](O)CN2C(=O)[C@@H](c2cc(-c3ccnc(N4CCC(c5ccc6nnc(-c7ccccc7O)cc6c5)CC4)n3)no2)C(C)C)cc1` [Compound 38], in test [1], the DC50 is above 0.1 µM and the “BRM HiBit Degradation Maximum (%)” value is listed as “A (“A” indicates maximum degradation ≥75%)”. Moreover, the Dmax in test [2] is below 50%.

For `CC(C)[C@@H](C(=O)N1C[C@H](O)C[C@H]1C(=O)N[C@@H](C)c1ccc(C#N)cc1)n1cc(N2CC3(CN(c4ccc5cc(-c6ccccc6O)nnc5c4)C3)C2)nn1` [Compound 202, (2S,4R)-N-((S)-1-(4-cyanophenyl)ethyl)-4-hydroxy-1-((S)-2-(4-(6-(3-(2-hydroxyphenyl)cinnolin-7-yl)-2,6-diazaspiro[3.3]heptan-2-yl)-1H-1,2,3-triazol-1-yl)-3-methylbutanoyl)pyrrolidine-2-carboxamide], in test [1], the DC50 is below 0.01 µM and the “BRM HiBit Degradation Maximum (%)” value is recorded as “A (“A” indicates maximum degradation ≥75%)”. In addition, in test [2], the DC50 is above 0.01 µM and the Dmax was above 50%.

As for `Cc1ncsc1-c1ccc([C@H](C)NC(=O)[C@@H]2C[C@@H](O)CN2C(=O)[C@@H](c2cc(N3CCC4(CCN(c5ccc6cc(-c7ccccc7O)nnc6c5)C4)CC3)no2)C(C)C)cc1` [Compound 83, (2S,4R)-4-hydroxy-1-((R)-2-(3-(2-(3-(2-hydroxyphenyl)cinnolin-7-yl)-2,8-diazaspiro [4.5]decan-8-yl)isoxazol-5-yl)-3-methylbutanoyl)-N-((S)-1-(4-(4-methylthiazol-5-yl)phenyl)ethyl)pyrrolidine-2-carboxamide], in test [1], the DC50 is below 0.01 µM and the “BRM HiBit Degradation Maximum (%)” value is given as “A (“A” indicates maximum degradation ≥75%)”. Moreover, in test [2], the DC50 was above 0.01 µM and the Dmax was above 75%.

In the case of `Cc1ncsc1-c1ccc([C@H](C)NC(=O)[C@@H]2C[C@@H](O)CN2C(=O)[C@@H](c2cc(N3CCOC4(CN(c5ccc6cc(-c7ccccc7O)nnc6c5)C4)C3)no2)C(C)C)cc1` [Compound 162, (2S,4R)-4-hydroxy-1-((R)-2-(3-(2-(3-(2-hydroxyphenyl)cinnolin-7-yl)-5-oxa-2,8-diazaspiro[3.5]nonan-8-yl)isoxazol-5-yl)-3-methylbutanoyl)-N-((S)-1-(4-(4-methylthiazol-5-yl)phenyl)ethyl)pyrrolidine-2-carboxamide], in test [1], the DC50 is below 0.01 µM and the “BRM HiBit Degradation Maximum (%)” value is “A (“A” indicates maximum degradation ≥75%)”. Moreover, in test [2], the DC50 was below 0.01 µM and the Dmax was above 75%.

As to `Cc1ncsc1-c1ccc([C@H](C)NC(=O)[C@@H]2C[C@@H](O)CN2C(=O)[C@@H](c2ccnc(N3CC4(CN(c5ccc6cc(-c7ccccc7O)nnc6c5)C4)C3)c2)C(C)C)cc1` [Compound 175, (2S,4R)-4-hydroxy-1-[(2R)-2-(2-{6-[3-(2-hydroxyphenyl)cinnolin-7-yl]-2,6-diazaspiro[3.3]heptan-2-yl}pyridin-4-yl)-3-methylbutanoyl]-N-[(1S)-1-[4-(4-methyl-1,3-thiazol-5-yl)phenyl]ethyl]pyrrolidine-2-carboxamide], in test [1], the DC50 is above 0.01 µM and the “BRM HiBit Degradation Maximum (%)” value is “A (“A” indicates maximum degradation ≥75%)”. The Dmax in test [2] was below 50%.

`Cc1ncsc1-c1ccc([C@H](C)NC(=O)[C@@H]2C[C@@H](O)CN2C(=O)[C@H](C(C)C)n2cc(-c3cc4cc(-c5ccccc5O)nnc4cc3F)nn2)cc1` [Compound 176, (2S,4R)-1-((S)-2-(4-(7-fluoro-3-(2-hydroxyphenyl)cinnolin-6-yl)-1H-1,2,3-triazol-1-yl)-3-methylbutanoyl)-4-hydroxy-N-((S)-1-(4-(4-methylthiazol-5-yl)phenyl)ethyl)pyrrolidine-2-carboxamide]: in test [1], the DC50 was below 0.01 µM and the “BRM HiBit Degradation Maximum (%)” value is “A (“A” indicates maximum degradation ≥75%)”. In test [2], the DC50 is below 0.01 µM and the Dmax was above 75%.

On to `Cc1ncsc1-c1ccc([C@H](C)NC(=O)[C@@H]2C[C@@H](O)CN2C(=O)[C@H](C(C)C)n2cc(N3CCN4CCN(c5ccc6nnc(-c7ccccc7O)cc6c5)CC4C3)nn2)cc1` (stereo partly drawn) [Compound 214], for which, in test [1], the DC50 is below 0.01 µM and the “BRM HiBit Degradation Maximum (%)” value is “A (“A” indicates maximum degradation ≥75%)”. Besides, in test [2], the Dmax was above 50%.

Take `Cc1ncsc1-c1ccc([C@H](C)NC(=O)[C@@H]2C[C@@H](O)CN2C(=O)[C@H](C(C)C)n2cc(C3CC4(C3)CN(c3ccc5nnc(-c6ccccc6O)cc5c3)C4)nn2)cc1` [Compound 204, (2S,4R)-4-hydroxy-1-((S)-2-(4-(2-(3-(2-hydroxyphenyl)cinnolin-6-yl)-2-azaspiro[3.3]heptan-6-yl)-1H-1,2,3-triazol-1-yl)-3-methylbutanoyl)-N-((S)-1-(4-(4-methylthiazol-5-yl)phenyl)ethyl)pyrrolidine-2-carboxamide]: in test [1], the DC50 is below 0.01 µM and the “BRM HiBit Degradation Maximum (%)” value is given as “A (“A” indicates maximum degradation ≥75%)”. In addition, in test [2], the DC50 was below 0.01 µM and the Dmax is above 75%.

Regarding `Cc1ncsc1-c1ccc([C@H](C)NC(=O)[C@@H]2C[C@@H](O)CN2C(=O)[C@@H](c2cc(N3CC4(CC(c5cc6nnc(-c7ccccc7O)cc6cc5Cl)C4)C3)no2)C(C)C)cc1` [Compound 220, (2S,4R)-1-((R)-2-(3-(6-(6-chloro-3-(2-hydroxyphenyl)cinnolin-7-yl)-2-azaspiro[3.3]heptan-2-yl)isoxazol-5-yl)-3-methylbutanoyl)-4-hydroxy-N-((S)-1-(4-(4-methylthiazol-5-yl)phenyl)ethyl)pyrrolidine-2-carboxamide], in test [1], the DC50 was below 0.01 µM and the “BRM HiBit Degradation Maximum (%)” value is recorded as “A (“A” indicates maximum degradation ≥75%)”. Also, in test [2], the DC50 is above 0.01 µM and the Dmax was above 75%.

With `Cc1ncsc1-c1ccc([C@H](C)NC(=O)[C@@H]2C[C@@H](O)CN2C(=O)[C@@H](c2cc(-c3cnc(N4CC[C@H](c5ccc6nnc(-c7ccccc7O)cc6c5)C4)nc3)no2)C(C)C)cc1` [Compound 49, (2S,4R)-4-hydroxy-1-((R)-2-(3-(2-((R)-3-(3-(2-hydroxyphenyl)cinnolin-6-yl)pyrrolidin-1-yl)pyrimidin-5-yl)isoxazol-5-yl)-3-methylbutanoyl)-N-((S)-1-(4-(4-methylthiazol-5-yl)phenyl)ethyl)pyrrolidine-2-carboxamide], in test [1], the DC50 was below 0.01 µM and the “BRM HiBit Degradation Maximum (%)” value is “A (“A” indicates maximum degradation ≥75%)”. Further, in test [2], the DC50 was below 0.01 µM and the Dmax was above 75%.

Consider `Cc1ncsc1-c1ccc([C@H](C)NC(=O)[C@@H]2C[C@@H](O)CN2C(=O)[C@@H](c2cc(N3C[C@H]4CN(c5ccc6cc(-c7ccccc7O)nnc6c5)C[C@H]4C3)no2)C(C)C)cc1` [Compound 131, (2S,4R)-4-hydroxy-1-((R)-2-(3-((3aR,6aS)-5-(3-(2-hydroxyphenyl)cinnolin-7-yl)hexahydropyrrolo[3,4-c]pyrrol-2(1H)-yl)isoxazol-5-yl)-3-methylbutanoyl)-N-((S)-1-(4-(4-methylthiazol-5-yl)phenyl)ethyl)pyrrolidine-2-carboxamide], for which, in test [1], the DC50 was below 0.01 µM and the “BRM HiBit Degradation Maximum (%)” value was “A (“A” indicates maximum degradation ≥75%)”. The Dmax in test [2] is above 50%.

On to `Cc1ncsc1-c1ccc([C@H](C)NC(=O)[C@@H]2C[C@@H](O)CN2C(=O)[C@@H](c2cc(N3CC4(CN(Cc5ccc6cc(-c7ccccc7O)nnc6c5)C4)C3)no2)C(C)C)cc1` [Compound 232, (2S,4R)-4-hydroxy-1-((R)-2-(3-(6-((3-(2-hydroxyphenyl)cinnolin-7-yl)methyl)-2,6-diazaspiro[3.3]heptan-2-yl)isoxazol-5-yl)-3-methylbutanoyl)-N-((S)-1-(4-(4-methylthiazol-5-yl)phenyl)ethyl)pyrrolidine-2-carboxamide], for which, in test [1], the DC50 was above 0.01 µM and the “BRM HiBit Degradation Maximum (%)” value is listed as “A (“A” indicates maximum degradation ≥75%)”. Besides, the Dmax in test [2] was below 50%.

Regarding `Cc1cc(N2CCC(c3ccc4nnc(-c5ccccc5O)cc4c3)CC2)ncc1-c1cc([C@H](C(=O)N2C[C@H](O)C[C@H]2C(=O)N[C@@H](C)c2ccc(-c3scnc3C)cc2)C(C)C)on1` [Compound 70, (2S,4R)-4-hydroxy-1-((R)-2-(3-(6-(4-(3-(2-hydroxyphenyl)cinnolin-6-yl)piperidin-1-yl)-4-methylpyridin-3-yl)isoxazol-5-yl)-3-methylbutanoyl)-N-((S)-1-(4-(4-methylthiazol-5-yl)phenyl)ethyl)pyrrolidine-2-carboxamide], in test [1], the DC50 was above 0.01 µM and the “BRM HiBit Degradation Maximum (%)” value was “A (“A” indicates maximum degradation ≥75%)”. Besides, in test [2], the DC50 is above 0.01 µM and the Dmax is above 50%.
